Test results: patent US20100210017A1, “COMPOSITIONS AND METHODS FOR ENHANCING TOLERANCE FOR THE PRODUCTION OF ORGANIC CHEMICALS PRODUCED BY MICROORGANISMS” (priority 2007, published 2010)
≈ marks a conversion by molar mass, not a printed value. Read-outs that look alike come from different tables or passages of the source.

Key:
Type in all cases: cell-based
[1] = system: E. coli (vector control; clone expressing aroH mutant); assay: 24 hour minimum inhibitory concentration of 3-HP in M9 minimal media; settings: Escherichia coli
Method: By use of the SCALEs methodology, a number of genetic targets for alleviating growth inhibition in the presence of 3-HP have been identified. […] A clone was constructed containing the tyrA-aroF operon and was cultured in the presence of 20 g/L 3-HP. Increased copy of this region partially alleviated growth inhibition, conferring a 15% increase in specific growth. […] One method to bypass this inherent control was obtaining an inducible feedback resistant aroH mutant that will increase the conversion of E-4-P while maintaining activity in the presence of increasing pools of downstream products, thus alleviating growth inhibition due to impaired synthesis of necessary byproducts of the chorismate pathway. […] In addition, the 24 hour minimum inhibitory concentration of 3-HP (the minimum concentration to stop visible growth at 24 hours) in M9 minimal media increased from 25 g/L for a vector control to 40 g/L for an E. coli clone expressing this aroH mutant. In certain embodiments herein, it is contemplated that the aroH mutant can be of use alone, or in combination with other genetic manipulations or selection to increase tolerance of 3-HP production in microorganisms.

[2] = system: Escherichia coli strain Mach1-T1^R containing pSMART-LCKAN empty vector; assay: Growth confirmations: media supplementation in presence of 3-HP; settings: for effect on specific growth in the presence of 3-HP: supplementation of the growth medium, 3-HP present
Description: Some methods concern wild-type Escherichia coli K12 (ATCC # 29425) used for the preparation of genomic DNA. Genomic libraries were constructed using the pSMART-LCKAN (Lucigen, Middleton, Wis.). Libraries were introduced into Escherichia coli strain Mach1-T1^R (Invitrogen, Carlsbad, Calif.) for selections as previously detailed. Mach1-T1^R containing pSMART-LCKAN empty vector were used for all control studies. Growth curves were done in MOPS Minimal Media. In this example, the antibiotic concentration was 20 ug kanamycin/mL.
Overnight cultures of Mach1-T1^R+pSMART LC-KAN were inoculated into 5 mL LB+kanamycin. Growth curves were constructed by inoculating into 15 mL screw cap tubes containing supplements (Table 1) and 15 mL MOPS Minimal Media+kanamycin+3-HP from overnight culture. Cultures were incubated at 37° C. and optical density was monitored to an OD600>0.2. Cultures were then diluted to an exact OD600=0.2 and were used to inoculate cultures containing 15 mL MOPS Minimal Media+kanamycin+3-HP (pH=7.0) to an initial optical density of […] in order to minimize effects of growth in stationary phase. Optical density was monitored and recorded over the entire range of microaerobic growth in minimal media, or until a final OD600 0.5-0.6. Growth parameters were evaluated in terms of specific growth, OD600 at the culmination of the growth phase (approximately 14 hours), and OD600 at conclusion of maximum growth phase and final OD600 (24 hrs). To address specific intermediate limitations, associated chorismate pathway supplements were added to final concentrations listed in Table 1.
To confirm these findings, the culture medium was supplemented with products synthesized downstream of chorismate. The addition of each product individually stimulated growth, further confirming that the inhibition is occurring at, or prior to synthesis of chorismate (FIG. 3B). FIG. 3B represents growth confirmations: addition of products downstream of chorismate partially alleviate growth inhibition confirmed by increased specific growth (black) and increased OD600 at the culmination of the growth phase (grey). However, increasing the supplementation of several downstream products (tyrosine, phenylalanine, tryptophan) results in feedback inhibition of the first committed step to the chorismate super-pathway and will therefore reduce formation of other downstream products including ubiquinone, meniquinone, and tetrahydrofolate and limit the associated growth benefits.

[3] = system: bacterial culture capable of producing 3-HP; assay: 3-HP production with exogenously added tyrosine; settings: 0.2 mM tyrosine added to culture
Method: In certain embodiments, exogenously added tyrosine can be added to a bacterial culture capable of producing 3-HP. In certain particular embodiments, tyrosine concentrations can be about 0.05 mM to about 0.5 mM. In one example, 0.2 mM tyrosine was added to a culture and the increase in 3-HP production was about 35%.

E. coli Mach1 = assay: Minimum inhibitory concentration of acrylic acid in minimal media; settings: Escherichia coli
Method: 3-HP composition obtained, for example, from TCI America for initial library selections and all subsequent growth confirmations can contain variable amounts of acrylic acid contamination. A minimum inhibitory concentration of acrylic acid for E. coli Mach1 grown in minimal media was determined to be around 0.6 g/L. In support that the tolerance mechanism specific to the chorismate super-pathway are exclusive to 3-HP toxicity, the minimum inhibitory concentrations of acrylic acid was determined to be 0.6 g/L for E. coli Mach1 grown in minimal media supplemented with addition of shikimate or homocysteine. Additionally, the minimal inhibitory concentration was determined to be 0.6 g/L for the feedback resistant aroH mutants grown in minimal media.

**Q.** What does the source list for `O=C(O)CCO` [3-HP, 3-hydroxypropionic acid]?
**A.** MIC ([1]; read-out: 24 hour minimum inhibitory concentration (minimum concentration to stop visible growth at 24 hours), M9 minimal media, E. coli clone expressing feedback resistant aroH mutant): 40000 µg/mL; MIC ([1]; read-out: 24 hour minimum inhibitory concentration (minimum concentration to stop visible growth at 24 hours), M9 minimal media, vector control): 25000 µg/mL

**Q.** Which “effect on specific growth in the presence of 3-HP” value [2] does the source give for `N[C@@H](Cc1ccccc1)C(=O)O` [Phenylalanine, phenylalanine] here?
**A.** detrimental effect

**Q.** How did the “regeneration of growth compared with wild-type growth” value ([2]; addition of shikimate to growth media under 3-HP stress) turn out when `O=C(O)C1=C[C@@H](O)[C@@H](O)[C@H](O)C1` [Shikimate, shikimate] was run?
**A.** about 20%

**Q.** What about the “effect on specific growth in the presence of 3-HP” value [2] of the same molecule?
**A.** dramatic increase in growth

**Q.** Which results are given for `N[C@@H](Cc1ccc(O)cc1)C(=O)O` [Tyrosine, tyrosine]?
**A.** effect on specific growth in the presence of 3-HP [2]: beneficial effect; increase in 3-HP production [3]: about 35%

**Q.** How did the MIC (E. coli Mach1; MACH1, E. coli Mach1, minimal media supplemented with shikimate or homocysteine, read-out: minimum inhibitory concentration) turn out when `C=CC(=O)O` [acrylic acid] was run?
**A.** 600 µg/mL (≈ 8.33 mM)

**Q.** What about the MIC (E. coli Mach1; MACH1, E. coli Mach1 grown in minimal media, read-out: minimum inhibitory concentration) of the same molecule?
**A.** ~600 µg/mL (≈ 8.33 mM)

**Q.** And the MIC (E. coli Mach1; MACH1, read-out: minimal inhibitory concentration, feedback resistant aroH mutants grown in minimal media)?
**A.** 600 µg/mL (≈ 8.33 mM)
